Data set [1] deals with Gram-positive bacteria such as staphylococci (including methicillin-resistant strains), streptococci, enterococci and many anaerobic Gram-positive bacteria. The conditions noted are these: Campoli-Richards et al. 1990 [2]; cited from earlier work.
The conditions of data set [2]: in vivo; cited from earlier work.
For data set [3], the system named is clinical isolates of Clostridium difficile. The conditions noted are these: isolates from patients with hospital or community acquired CDI; Jamal, Rotimi 2016 [3]; cited from earlier work.
Data set [4] can be described thus: Phase-1 open cross-over cohort study in healthy subjects: conventional vs novel teicoplanin dosage regimen (pharmacokinetics, tolerability). The class given is in vivo, human (healthy subjects). Here is the method:
Teicoplanin: Conventional Dosage Regimen as Compared to the Novel Dosage Regimen
Phase-1 Study in Healthy Subjects
The study is performed as an open, cross over cohort-study after having received ethical approval and written consent by the participating 6 healthy subjects (3 males and 3 females). The principle study design of Outman et al (1990 [4]) is used with the following modification: 6 loading doses are followed by the maintenance dosing phase up to a total of 6 days.
In the first cross over comparative study, the following two dosage regimens are used:
Regimen A1: 6 loading dosages of 400 mg twice daily (bid) followed by 3 dosages of 400 mg once daily (total 6 days): total dosage 3600 mg
Regimen B1: first loading dose 800 mg followed by 4 dosages 400 mg bid, followed by 6 dosages 200 mg bid (total 6 days): total dosage 3600 mg.
In the second cross over comparative study, the following two dosage regimens are used:
Regimen A2: 6 loading dosages of 800 mg bid followed by 3 dosages of 800 mg once daily (total 6 days): total dosage 7200 mg
Regimen B2: 6 loading dosages of 800 mg bid followed by 6 dosages 400 mg bid (total 6 days): total dosage 7200 mg.

Setting [5] is: overall, no significant difference between regimens A and B in both studies.

Results on one substance are retold here after patent US20210393735A1, “PHARMACEUTICAL COMPOSITION COMPRISING TEICOPLANIN” (GALENUS G.H. AG, priority 2018, published 2021).

Turning to teicoplanin, the susceptibility in vitro result in data set [1] is listed as “susceptible”. In data set [2], the “terminal half-life, mean (±SD)” value is listed as 157 (±93) hours (h). The “terminal half-life, median (range)” value in data set [2] is reported as 168 (111-278) h. The “activity against clinical isolates” value in data set [3] is recorded as “active”. The “phlebitis or renal, hepatic, or ototoxicity” value in data set [4] (1st and 2nd study) was “no evidence”. In data set [4] (1st and 2nd study, both dosing regimens), the tolerability result is recorded as “generally well tolerated”. Also, the trough levels was in the range of 8 to 15 mg/L in data set [4] (1st study, 1st day, regimen A1 (6 x 400 mg bid, then 3 x 400 mg once daily)); 18 to 25 mg/L in data set [4] (1st study, 1st day, regimen B1 (800 mg, then 4 x 400 mg bid, then 6 x 200 mg bid)); 10 to 18 mg/L in data set [4] (1st study, day 4 to 6, regimen A1); 20 to 30 mg/L in data set [4] (1st study, day 4 to 6, regimen B1); 14 to 24 mg/L in data set [4] (2nd study, 1st day, regimen A2 (6 x 800 mg bid, then 3 x 800 mg once daily)); 25 to 34 mg/L in data set [4] (2nd study, 1st day, regimen B2 (6 x 800 mg bid, then 6 x 400 mg bid)). Moreover, the trough levels is 18 to 26 mg/L in data set [4] (2nd study, day 4 to 6, regimen A2) and 30 to 38 mg/L in data set [4] (2nd study, day 4 to 6, regimen B2). The “higher trough levels with novel vs conventional dosage regimen” value in data set [4] (at the 1st day (first study only) and from day 4 on) is recorded as “about 50%”. Moreover, in data set [4] (during infusion of some, but not all, doses, 6 healthy subjects), the “lightheadedness during the infusion” value is “Two subjects experience transient lightheadedness”. For the same substance, the renal clearance in data set [4] (setting [5]) came out at 0.19 ± 0.015 mL/min/kg. In addition, in data set [4] (setting [5]), the t1/2 is 157+93 h. In data set [4] (setting [5]), this substance displayed a total clearance of 0.21 ± 0.018 mL/min/kg.
